Assay results taken from the NIST ThermoML archive (doi:10.1016/j.fluid.2005.11.026).
Values joined by “and” are separate entries in the source; they are usually repeats but may differ in a detail not shown here. Equal values may be shown once. Numbers after ± are expanded uncertainties.

Settings: 313.15 K; Liquid; Closed cell (Static) method

SMILES | vapor or sublimation pressure
C1CCCCC1 [cyclohexane] | 24.62 ± 0.096 kPa
Cc1ccccc1 [toluene] | 7.881 ± 0.041 kPa and 7.888 ± 0.041 kPa and 7.889 ± 0.041 kPa
